In the supplement of paper PMC10307832:

Tests used:
Assay in all cases: relative viability (nuclei count vs DMSO), 5 days (fraction); higher = more cells survive
QS11 + Palbociclib = compound: C1CC2=C(C1)C=C(C=C2)OC3=NC(=C4C(=N3)N(C=N4)CC5=CC=C(C=C5)C6=CC=CC=C6)N[C@@H](CC7=CC=CC=C7)CO [QS11] + CC(=O)c1c(C)c2cnc(Nc3ccc(N4CCNCC4)cn3)nc2n(C2CCCC2)c1=O [Palbociclib] (partner 0.5 µM)
Outline: (§1)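 Lung cancer cell lines in 1536-well plates got either a single drug or a fixed anchor-drug dose together with five library-drug doses (not always all listed) in √10 steps, by pin tool, on the day after seeding. Nuclei were counted after 5 days, and relative viability is the treated-to-vehicle ratio of nuclei counts. Values are medians of duplicate plates.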

QS11 + Olaparib = compound: C1CC2=C(C1)C=C(C=C2)OC3=NC(=C4C(=N3)N(C=N4)CC5=CC=C(C=C5)C6=CC=CC=C6)N[C@@H](CC7=CC=CC=C7)CO [QS11] + O=C(c1cc(Cc2n[nH]c(=O)c3ccccc23)ccc1F)N1CCN(C(=O)C2CC2)CC1 [Olaparib] (partner 8 µM)
Outline: as §1

Darinaparsin + AZD7762 = compound: C[As](C)SC[C@H](NC(=O)CC[C@H](N)C(=O)O)C(=O)NCC(=O)O [Darinaparsin] + NC(=O)Nc1cc(-c2cccc(F)c2)sc1C(=O)N[C@H]1CCCNC1 [AZD7762] (partner 0.2 µM)
Outline: as §1

[1] = compound: C[As](C)SC[C@H](NC(=O)CC[C@H](N)C(=O)O)C(=O)NCC(=O)O [Darinaparsin] + CC1(C)CCC(c2ccc(Cl)cc2)=C(CN2CCN(c3ccc(C(=O)NS(=O)(=O)c4ccc(N[C@H](CCN5CCOCC5)CSc5ccccc5)c(S(=O)(=O)C(F)(F)F)c4)cc3)CC2)C1 [Navitoclax] (partner 0.5 µM)
Outline: as §1

Cell Line	relative viability (QS11 + Palbociclib; first compound 0.08 µM)	relative viability (QS11 + Palbociclib; first compound 0.253 µM)	relative viability (QS11 + Palbociclib; first compound 2.53 µM)	relative viability (QS11 + Palbociclib; first compound 8 µM)	relative viability (QS11 + Olaparib; first compound 0.08 µM)	relative viability (QS11 + Olaparib; first compound 0.253 µM)	relative viability (QS11 + Olaparib; first compound 2.53 µM)	relative viability (QS11 + Olaparib; first compound 8 µM)	relative viability (Darinaparsin + AZD7762; first compound 0.08 µM)	relative viability (Darinaparsin + AZD7762; first compound 0.8 µM)	relative viability (Darinaparsin + AZD7762; first compound 2.53 µM)	relative viability (Darinaparsin + AZD7762; first compound 8 µM)	relative viability (QS11 + Palbociclib; first compound 0.8 µM)	relative viability (QS11 + Olaparib; first compound 0.8 µM)	relative viability ([1]; first compound 0.08 µM)	relative viability ([1]; first compound 0.8 µM)	relative viability ([1]; first compound 2.53 µM)	relative viability ([1]; first compound 8 µM)
LCLC-103H	0.498	0.506	0.535	0.481	0.799	0.849	0.791	0.814	0.813	0.74	0.727	0.777						
ABC-1	0.805	0.782	0.64	0.5	0.655	0.833	0.563	1.04	0.747	0.82	0.851	0.968	0.652	0.85				
SW 1573	0.388	0.35	0.223	0.161	0.615	0.489	0.416	0.463					0.339	0.503	1.23	0.991	1.01	0.992
COR-L 105	0.423	0.437	0.352	0.442	0.764	0.56	0.716	0.66					0.417	0.674	0.883	0.709		0.82
NCI-H358	0.132	0.128	0.159	0.118	0.635	0.62	0.633	0.618	0.478	0.581	0.591	0.522	0.134	0.566				
NCI-H2009	0.203	0.233	0.181	0.17	0.596	0.816	0.613	0.49					0.209	0.679	1.35	1.11	1.11	1.06
NCI-H2023	0.42	0.397	0.36	0.29	0.414	0.556	0.514	0.439					0.302	0.398	1.08	1.07	0.951	1.2
NCI-H520	0.211	0.208	0.208	0.204	0.347	0.304	0.313	0.301					0.268	0.394	1.41	0.976	1.17	1.11
NCI-H2228	0.753	0.741	0.641	1.01	0.586	0.663	0.648	0.993					1.06	0.727	0.856	0.996	1.02	0.825
